In US9796716B2, “Selective inhibitors of Tec and Src protein kinase families” (Pharmascience, Inc., priority 2012, dated 2017):
Where two headings read alike, the source gives them in different places.

Columns and labels:
[1] = target: recombinant human full-length Bruton Agammaglobulinemia Tyrosine Kinase (Btk) (Homo sapiens (Human), UniProt Q06187); experiment: Btk Kinase Inhibition Assay (fluorescence polarization); assay type: biochemical; conditions: 10 μM ATP, 250 μM substrate, 60 minutes; Ki calculated from IC50 using the Cheng-Prusoff equation
recombinant human full-length Bruton Agammaglobulinemia Tyrosine Kinase (Btk), sequence (Q06187 whole entry): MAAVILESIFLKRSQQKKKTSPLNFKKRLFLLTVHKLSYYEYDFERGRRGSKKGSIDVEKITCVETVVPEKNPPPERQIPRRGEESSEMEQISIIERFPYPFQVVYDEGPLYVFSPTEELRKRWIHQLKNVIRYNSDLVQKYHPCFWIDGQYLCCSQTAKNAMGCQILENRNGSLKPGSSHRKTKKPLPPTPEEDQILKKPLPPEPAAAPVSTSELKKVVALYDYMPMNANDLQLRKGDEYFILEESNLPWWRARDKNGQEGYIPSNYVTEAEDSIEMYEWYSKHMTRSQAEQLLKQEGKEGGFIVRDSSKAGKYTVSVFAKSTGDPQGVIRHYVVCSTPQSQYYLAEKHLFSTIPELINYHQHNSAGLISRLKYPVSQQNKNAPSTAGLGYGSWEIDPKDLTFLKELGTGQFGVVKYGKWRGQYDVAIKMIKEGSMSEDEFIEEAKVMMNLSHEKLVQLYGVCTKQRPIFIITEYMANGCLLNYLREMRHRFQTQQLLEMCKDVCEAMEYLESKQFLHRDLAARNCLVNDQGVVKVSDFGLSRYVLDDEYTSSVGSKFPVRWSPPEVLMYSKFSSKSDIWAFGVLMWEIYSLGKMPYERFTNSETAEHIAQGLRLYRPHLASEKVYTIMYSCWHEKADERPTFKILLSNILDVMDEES
Procedure: Kinase Binding Btk Kinase Inhibition Assay
Fluorescence polarization-based kinase assays were performed in 384 well-plate format using histidine tagged recombinant human full-length Bruton Agammaglobulinemia Tyrosine Kinase (Btk) and a modified protocol of the KinEASE™ FP Fluorescein Green Assay supplied from Millipore. Kinase reaction were performed at room temperature for 60 minutes in presence of 250 μM substrate, 10 μM ATP and variable test article concentrations. The reaction was stopped with EDTA/kinase detection reagents and the polarization measured on a Tecan 500 instrument. From the dose-response curve obtained, the IC50 was calculated using Graph Pad Prisms® using a non linear fit curve. The Km for ATP on each enzyme was experimentally determined and the Ki values calculated using the Cheng-Prusoff equation (see: Cheng Y, Prusoff W H. (1973) Relationship between the inhibition constant (K1) and the concentration of inhibitor which causes 50 percent inhibition (I50) of an enzymatic reaction”. Biochem Pharmacol 22 (23): 3099-108).

[2] = tested on: Splenocytes (B cell proliferation stimulated with anti-IgM F(ab′)2); experiment: Splenic Cell Proliferation Assay; assay type: cell-based; conditions: CD1 mouse splenocytes, 2.5 ug/ml anti-IgM F(ab′)2 for 72 h, Cell Titer-Glo, read-out: EC50 (nM), Inhibition of splenic cell proliferation
Procedure: Splenic Cell Proliferation Assay
Splenocytes were obtained from 6 week old male CD1 mice (Charles River Laboratories Inc.). Mouse spleens were manually disrupted in PBS and filtered using a 70 um cell strainer followed by ammonium chloride red blood cell lysis. Cells were washed, resuspended in Splenocyte Medium (HyClone RPMI supplemented with 10% heat-inactivated FBS, 0.5× non-essential amino acids, 10 mM HEPES, 50 uM beta mercaptoethanol) and incubated at 37° C., 5% CO2 for 2 h to remove adherent cells. Suspension cells were seeded in 96 well plates at 50,000 cells per well and incubated at 37° C., 5% CO2 for 1 h. Splenocytes were pre-treated in triplicate with 10,000 nM curves of Formula 1 compounds for 1 h, followed by stimulation of B cell proliferation with 2.5 ug/ml anti-IgM F(ab′)2 (Jackson ImmunoResearch) for 72 h. Cell proliferation was measured by Cell Titer-Glo Luminescent Assay (Promega). EC50 values (50% proliferation in the presence of compound as compared to vehicle treated controls) were calculated from dose response compound curves using GraphPad Prism Software.

Balb/c mice = experiment: Mouse Arthus; assay type: in vivo; conditions: oral gavage at 30 mg/kg, 1 h pre-treatment
Procedure: Mouse Arthus studies were conducted as reported in Braselmann S, Taylor V, Zhao H, Wang S, Sylvain C, Baluom M, Qu K, Herlaar E, Lau A, Young C, Wong B R, Lovell S, Sun T, Park G, Argade A, Jurcevic S, Pine P, Singh R, Grossbard E B, Payan D G, Masuda E S: R406 an orally available spleen tyrosine kinase inhibitor blocks fc receptor signaling and reduces immune-complex mediated inflammation. J Pharmacol Exp Ther, 2006, 319:998-1008.
In summary, female Balb/c mice (6-7 weeks on arrival) were habituated to the animal facility for at least 4 days. On the day of the experiment, animals were pre-treated (t=minus 1 h) with compound or vehicle alone by gavage (PO). At t=0, animals were injected intravenously (IV; 0.1 mL/mouse) with saline containing chicken ovalbumin and Evan's blue (10 mg/mL of each). Ten minutes later (t=10 min), animals were anesthesized with isoflurane, the dorsal surface was shaved and rabbit anti-chicken ovalbumin antibody was then injected intradermally at one site on the right side of the animal (25 μg in 30 μL). The same amount of isotype control antibody was then injected on the left side.
The animals were then returned to their home cage and skin punches (8 mm) were collected from each injection site four hours later. The samples were placed in 1 mL formamide overnight at 80 degrees C. (1 skin biopsy per 1 mL formamide in a glass tube). The amount of Evan's blue in the formamide solution was then assessed by spectrophotometry (630 nm) as a measure of serum extravasation into the dermis.

B10R111 mice = experiment: Mouse CIA model; assay type: in vivo; conditions: oral gavage at 30 mg/kg (BID)
Procedure: Mouse CIA model was performed using the methods described by Trentham D E, Townes A S, Kang A H. Autoimmunity to Type II Collagen: An Experimental Model of Arthritis. J Exp Med 1977; 857-868, and Bendele A M. Animal Models of Rheumatoid Arthritis. J Musculoskel Interact 2001; 377-385.
In summary, male B10R111 mice (7-9 wks on arrival) were habituated to the animal facility for at least 4 days. On experimental day 0 mice were anaesthetized with isoflurane and the dorsal surface was shaved. Collagen, emulsified in Freund's complete adjuvant (CFA) supplemented with additional mycobacterium tuberculosis (TB) H37Ra, was injected intradermally at the base of the tail (0.15 mL/animal; 2 mg/mL collagen and 2.5 mg/mL TB in CFA). This CFA treatment was repeated on day 15.
From day 15 to the end of the study animals were scored daily for signs of arthritis. On the first day of disease (RA Day 1) animals were recruited to the study and grouped using a balanced design based on arthritis score. Once recruited, animals were weighed and dosed twice daily by gavage (PO, BID). Recruited animals were then scored twice a week on RA days 1, 5, 8 and 12. At the end of the study (RA day 12) animals were weighed and scored.

Ki [1] [nM]	Structure (SMILES)	EC50 ([2]; Mus musculus, Splenocyte, 72 h) [nM]	efficacy in mouse Arthus (Evan's blue extravasation) (Balb/c mice)	EC50 [2] [nM]	efficacy in mouse CIA model (arthritis score) (B10R111 mice)
< 100	Cc1ncc(COc2cc(F)cc(Oc3ccc(-c4nn(C5CCOCC5)c5ncnc(N)c45)cc3)c2)n1C [Compound 108]	< 100	demonstrated efficacy		
< 100	CC(C)n1nc(-c2ccc(Oc3cc(F)cc(OCc4cncn4C)c3)cc2)c2c(N)ncnc21 [Compound 79]	< 100	demonstrated efficacy		
< 100	N#Cc1ccccc1COc1cccc(Oc2ccc(-c3nn(C4CCCC4)c4ncnc(N)c34)cc2)c1 [Compound 15]		demonstrated efficacy	< 100	
< 100	Cc1ncc(COc2cc(F)cc(Oc3ccc(-c4nn(C(CO)CO)c5ncnc(N)c45)cc3)c2)s1 [Compound 100]	< 100	demonstrated efficacy		
< 100	Cc1ncc(COc2cc(F)cc(Oc3ccc(-c4nn(CC(C)(C)O)c5ncnc(N)c45)cc3)c2)s1 [Compound 117]	< 100	demonstrated efficacy		
< 100	Nc1ncnc2c1c(-c1ccc(Oc3cccc(OCc4cncs4)c3)cc1)nn2C1CCOCC1 [Compound 24]	< 100	demonstrated efficacy		
< 100	Cn1cncc1COc1cc(F)cc(Oc2ccc(-c3nn(C4CCCC4)c4ncnc(N)c34)cc2)c1 [Compound 82]	< 100	demonstrated efficacy		
< 100	Cc1ncc(COc2cc(F)cc(Oc3ccc(-c4nn(C(C)C)c5ncnc(N)c45)cc3)c2)s1 [Compound 78]	< 100	demonstrated efficacy		demonstrated efficacy
< 100	Cc1ncc(COc2cc(F)cc(Oc3ccc(-c4nn(C5CCOCC5)c5ncnc(N)c45)cc3)c2)cn1 [Compound 106]	< 100	demonstrated efficacy		
< 100	Cn1cncc1COc1cc(F)cc(Oc2ccc(-c3nn(CCO)c4ncnc(N)c34)cc2)c1 [Compound 90]	100 to 1000	demonstrated efficacy		
< 100	Cc1ncc(COc2cc(F)cc(Oc3ccc(-c4nn(CC5(C)COC5)c5ncnc(N)c45)cc3)c2)s1 [Compound 125]	< 100	demonstrated efficacy		
< 100	Nc1ncnc2c1c(-c1ccc(Oc3cccc(OCc4cncs4)c3)cc1)nn2C1CCCC1 [Compound 14]	< 100	demonstrated efficacy		demonstrated efficacy
< 100	Cc1ncc(COc2cc(F)cc(Oc3ccc(-c4nn(C5CCCC5)c5ncnc(N)c45)cc3)c2)cn1 [Compound 107]	< 100	demonstrated efficacy		
< 100	Cc1ncc(COc2cccc(Oc3ccc(-c4nn(C5CCOCC5)c5ncnc(N)c45)cc3F)c2)s1 [Compound 62]	< 100	demonstrated efficacy		
< 100	Cc1ccc(COc2cc(F)cc(Oc3ccc(-c4nn(C(C)C)c5ncnc(N)c45)cc3)c2)cn1 [Compound 85]	< 100	demonstrated efficacy		demonstrated efficacy
< 100	Cc1ncc(COc2cc(F)cc(Oc3ccc(-c4nn(C(C)C)c5ncnc(N)c45)cc3)c2)cn1 [Compound 102]	< 100	demonstrated efficacy		demonstrated efficacy
< 100	Cn1cncc1COc1cc(F)cc(Oc2ccc(-c3nn(C4CCCCC4)c4ncnc(N)c34)cc2)c1 [Compound 103]	< 100	demonstrated efficacy		
< 100	Cc1ncc(COc2cc(F)cc(Oc3ccc(-c4nn(C5CCCC5)c5ncnc(N)c45)cc3)c2)s1 [Compound 58]	< 100	demonstrated efficacy		demonstrated efficacy
< 100	Cc1ncc(COc2cc(F)cc(Oc3ccc(-c4nn(C5CCOCC5)c5ncnc(N)c45)cc3)c2)s1 [Compound 54]	< 100	demonstrated efficacy		
< 100	Nc1ncnc2c1c(-c1ccc(Oc3cc(F)cc(OCc4cncs4)c3)cc1)nn2C1CCOCC1 [Compound 46]	< 100	demonstrated efficacy		
< 100	Cc1ncc(COc2cc(F)cc(Oc3ccc(-c4nn(C5CCOCC5)c5ncnc(N)c45)cc3F)c2)s1 [Compound 59]	< 100	demonstrated efficacy		
< 100	Nc1ncnc2c1c(-c1ccc(Oc3cc(F)cc(OCc4cncs4)c3)cc1)nn2C1CCCC1 [Compound 50]	< 100	demonstrated efficacy		
< 100	Cn1cncc1COc1cc(F)cc(Oc2ccc(-c3nn(C4CCOCC4)c4ncnc(N)c34)cc2)c1 [Compound 71]	< 100	demonstrated efficacy		
< 100	Nc1ncnc2c1c(-c1ccc(Oc3cc(F)cc(OCc4ccccc4)c3)cc1)nn2C1CCOCC1 [Compound 63]	< 100			
< 100	Nc1ncnc2c1c(-c1ccc(Oc3cc(F)cc(CCc4ccccc4)c3)cc1)nn2C1CCOCC1 [Compound 66]	100 to 1000			
